How the values were obtained:
Type in all cases: cell-based
[1] = tested on: Chikungunya virus (CHIKV); assay: microbe, parasite or virus in culture; details: Chikungunya virus, Vero, 48 h, read-out: Percent viral inhibition CHKV
[2] = tested on: dengue virus (DENV); assay: microbe, parasite or virus in culture; details: Dengue virus, Vero, 120 h, read-out: Percent viral inhibition DENY
[3] = tested on: Marburg virus (MARV); assay: organism not typed; details: Vero, 72 h, read-out: Percent viral inhibition MARV

CC(CCN(C)C)N1CCN(c2ncc(Oc3cc(CN4CCC(CC(=O)O)CC4)cc(-c4cc(Cl)cc(Cl)c4)n3)cn2)CC1 (stereo not drawn) [Example 240, 2-(1-((2-(3,5-dichlorophenyl)-6-((2-(4-(4-(dimethylamino)butan-2-yl)piperazin-1-yl)pyrimidin-5-yl)oxy)pyridin-4-yl)methyl)piperidin-4-yl)acetic acid]
inhibition at 1 µM [1]: 28.5%
inhibition at 1 µM [2]: 36.8%
inhibition at 1 µM [3]: 67.4%

CNC(=O)OCCN1CCN(c2ncc(Oc3cc(CN4CCC(CC(=O)O)CC4)cc(-c4cc(Cl)cc(Cl)c4)n3)cn2)CC1 [Example 241, 2-(1-((2-(3,5-dichlorophenyl)-6-((2-(4-(2-((methylcarbamoyl)oxy)ethyl)piperazin-1-yl)pyrimidin-5-yl)oxy)pyridin-4-yl)methyl)piperidin-4-yl)acetic acid]
inhibition at 1 µM [1]: 32.4%
inhibition at 1 µM [2]: 43.4%
inhibition at 1 µM [3]: 73.1%

CS(=O)(=O)CCCN1CCN(c2ncc(Oc3cc(CN4CCC(CC(=O)O)CC4)cc(-c4cc(Cl)cc(Cl)c4)n3)cn2)CC1 [Example 242, 2-(1-((2-(3,5-dichlorophenyl)-6-((2-(4-(3-(methylsulfonyl)propyl)piperazin-1-yl)pyrimidin-5-yl)oxy)pyridin-4-yl)methyl)piperidin-4-yl)acetic acid]
inhibition at 1 µM [1]: 31.9%
inhibition at 1 µM [2]: 16.4%
inhibition at 1 µM [3]: 55.5%

CS(=O)(=O)CCCN1CCN(c2ccc(Oc3cc(CN4CCC(CC(=O)O)CC4)cc(-c4cc(Cl)cc(Cl)c4)n3)cn2)CC1 [Example 243, 2-(1-((2-(3,5-dichlorophenyl)-6-((6-(4-(3-(methylsulfonyl)propyl)piperazin-1-yl)pyridin-3-yl)oxy)pyridin-4-yl)methyl)piperidin-4-yl)acetic acid]
inhibition at 1 µM [1]: 14.6%
inhibition at 1 µM [2]: 37.9%
inhibition at 1 µM [3]: 46.8%

COCCN1CCN(c2ccc(Oc3cc(CN4CCC(CC(=O)O)CC4)cc(-c4cc(Cl)cc(Cl)c4)n3)cn2)CC1 [Example 244, 2-(1-((2-(3,5-dichlorophenyl)-6-((6-(4-(2-methoxyethyl)piperazin-1-yl)pyridin-3-yl)oxy)pyridin-4-yl)methyl)piperidin-4-yl)acetic acid]
inhibition at 1 µM [1]: 6.34%
inhibition at 1 µM [2]: 14%
inhibition at 1 µM [3]: 61.4%

COCCN1CCN(c2ncc(Oc3cc(CN4CCC(CNC(C)=O)CC4)cc(-c4cc(Cl)cc(Cl)c4)n3)cn2)CC1 [Example 245, N-((1-((2-(3,5-dichlorophenyl)-6-((2-(4-(2-methoxyethyl)piperazin-1-yl)pyrimidin-5-yl)oxy)pyridin-4-yl)methyl)piperidin-4-yl)methyl)acetamide]
inhibition at 1 µM [1]: 24.1%
inhibition at 1 µM [2]: 53.3%
inhibition at 1 µM [3]: 53.9%

NS(=O)(=O)CCCN1CCN(c2ncc(Oc3cc(CN4CCC(CC(=O)O)CC4)cc(-c4cc(Cl)cc(Cl)c4)n3)cn2)CC1 [Example 246, 2-(1-((2-(3,5-dichlorophenyl)-6-((2-(4-(3-sulfamoylpropyl)piperazin-1-yl)pyrimidin-5-yl)oxy)pyridin-4-yl)methyl)piperidin-4-yl)acetic acid]
inhibition at 1 µM [1]: 24.6%
inhibition at 1 µM [2]: 50.8%
inhibition at 1 µM [3]: 39.9%

COCCN1CCN(c2ncc(Oc3cc(CN4CCC(CC(=O)O)CC4)cc(-c4cc(Cl)cc(Cl)c4)n3)cn2)CC1 [Example 247, 2-(1-((2-(3,5-dichlorophenyl)-6-((2-(4-(2-methoxyethyl)piperazin-1-yl)pyrimidin-5-yl)oxy)pyridin-4-yl)methyl)piperidin-4-yl)acetic acid]
inhibition at 1 µM [1]: 31.1%
inhibition at 1 µM [2]: 50%
inhibition at 1 µM [3]: 49.7%

CNC(=O)OCC1CCN(Cc2cc(Oc3cnc(N4CCN(CCC(=O)O)CC4)nc3)nc(-c3cc(Cl)cc(Cl)c3)c2)CC1 [Example 248, 3-(4-(5-((6-(3,5-dichlorophenyl)-4-((4-(((methylcarbamoyl)oxy)methyl)piperidin-1-yl)methyl)pyridin-2-yl)oxy)pyrimidin-2-yl)piperazin-1-yl) propanoic acid]
inhibition at 1 µM [1]: 34.8%
inhibition at 1 µM [2]: 81.2%
inhibition at 1 µM [3]: 49.6%

CC(=O)NCC1CCN(Cc2cc(Oc3ccc(N4CCN(CCCC(=O)O)CC4)nc3)nc(-c3cc(Cl)cc(Cl)c3)c2)CC1 [Example 249, 4-(4-(5-((4-((4-(acetamidomethyl)piperidin-1-yl)methyl)-6-(3,5-dichlorophenyl)pyridin-2-yl)oxy)pyridin-2-yl)piperazin-1-yl)butanoic acid]
inhibition at 1 µM [1]: 32.5%
inhibition at 1 µM [2]: 48.6%
inhibition at 1 µM [3]: 51.4%

COCCN1CCN(c2ccc(Oc3cc(CN4CCC(CNC(C)=O)CC4)cc(-c4cc(Cl)cc(Cl)c4)n3)cn2)CC1 [Example 250, N-((1-((2-(3,5-dichlorophenyl)-6-((6-(4-(2-methoxyethyl)piperazin-1-yl)pyridin-3-yl)oxy)pyridin-4-yl)methyl)piperidin-4-yl)methyl)acetamide]
inhibition at 1 µM [1]: 25.9%
inhibition at 1 µM [2]: 55%
inhibition at 1 µM [3]: 0%

CC(=O)NCC1CCN(Cc2cc(Oc3ccc(N4CCN(CCCS(C)(=O)=O)CC4)nc3)nc(-c3cc(Cl)cc(Cl)c3)c2)CC1 [Example 251, N-((1-((2-(3,5-dichlorophenyl)-6-((6-(4-(3-(methylsulfonyl)propyl)piperazin-1-yl)pyridin-3-yl)oxy)pyridin-4-yl)methyl)piperidin-4-yl)methyl)acetamide]
inhibition at 1 µM [1]: 0%
inhibition at 1 µM [2]: 45.5%
inhibition at 1 µM [3]: 38.9%

NS(=O)(=O)CCCN1CCN(c2ccc(Oc3cc(CN4CCC(CC(=O)O)CC4)cc(-c4cc(Cl)cc(Cl)c4)n3)cn2)CC1 [Example 252, 2-(1-((2-(3,5-dichlorophenyl)-6-((6-(4-(3-sulfamoylpropyl)piperazin-1-yl)pyridin-3-yl)oxy)pyridin-4-yl)methyl)piperidin-4-yl)acetic acid]
inhibition at 1 µM [1]: 33.2%
inhibition at 1 µM [2]: 23.3%
inhibition at 1 µM [3]: 53.5%

CC(=O)NCC1CCN(Cc2cc(Oc3cnc(N4CCN(CCCS(N)(=O)=O)CC4)nc3)nc(-c3cc(Cl)cc(Cl)c3)c2)CC1 [Example 253, N-((1-((2-(3,5-dichlorophenyl)-6-((2-(4-(3-sulfamoylpropyl)piperazin-1-yl)pyrimidin-5-yl)oxy)pyridin-4-yl)methyl)piperidin-4-yl)methyl)acetamide]
inhibition at 1 µM [1]: 36.1%
inhibition at 1 µM [2]: 27.3%
inhibition at 1 µM [3]: 52.1%

CNC(=O)NCC1CCN(Cc2cc(Oc3ccc(N4CCN(CCOC)CC4)nc3)nc(-c3cc(Cl)cc(Cl)c3)c2)CC1 [Example 254, 1-((1-((2-(3,5-dichlorophenyl)-6-((6-(4-(2-methoxyethyl)piperazin-1-yl)pyridin-3-yl)oxy)pyridin-4-yl)methyl)piperidin-4-yl)methyl)-3-methylurea]
inhibition at 1 µM [1]: 5.74%
inhibition at 1 µM [2]: 57%
inhibition at 1 µM [3]: 40.4%

CNC(=O)NCC1CCN(Cc2cc(Oc3ccc(N4CCN(CCCS(C)(=O)=O)CC4)nc3)nc(-c3cc(Cl)cc(Cl)c3)c2)CC1 [Example 255, 1-((1-((2-(3,5-dichlorophenyl)-6-((6-(4-(3-(methylsulfonyl)propyl)piperazin-1-yl)pyridin-3-yl)oxy)pyridin-4-yl)methyl)piperidin-4-yl)methyl)-3-methylurea]
inhibition at 1 µM [1]: 16.1%
inhibition at 1 µM [2]: 10.3%
inhibition at 1 µM [3]: 40.1%

CNC(=O)NCC1CCN(Cc2cc(Oc3cnc(N4CCN(CCC(=O)O)CC4)nc3)nc(-c3cc(Cl)cc(Cl)c3)c2)CC1 [Example 256, 3-(4-(5-((6-(3,5-dichlorophenyl)-4-((4-((3-methylureido)methyl)piperidin-1-yl)methyl)pyridin-2-yl)oxy)pyrimidin-2-yl)piperazin-1-yl)propanoic acid]
inhibition at 1 µM [1]: 30.4%
inhibition at 1 µM [2]: 47.2%
inhibition at 1 µM [3]: 49.3%

CNC(=O)NCC1CCN(Cc2cc(Oc3cnc(N4CCN(CCCS(C)(=O)=O)CC4)nc3)nc(-c3cc(Cl)cc(Cl)c3)c2)CC1 [Example 257, 1-((1-((2-(3,5-dichlorophenyl)-6-((2-(4-(3-(methylsulfonyl)propyl)piperazin-1-yl)pyrimidin-5-yl)oxy)pyridin-4-yl)methyl)piperidin-4-yl)methyl)-3-methylurea]
inhibition at 1 µM [1]: 10.3%
inhibition at 1 µM [2]: 46.5%
inhibition at 1 µM [3]: 26.5%

CC(=O)NCC1CCN(Cc2cc(Oc3cnc(N4CCN(CCCS(C)(=O)=O)CC4)nc3)nc(-c3cc(Cl)cc(Cl)c3)c2)CC1 [Example 259, N-((1-((2-(3,5-dichlorophenyl)-6-((2-(4-(3-(methylsulfonyl)propyl)piperazin-1-yl)pyrimidin-5-yl)oxy)pyridin-4-yl)methyl)piperidin-4-yl)methyl)acetamide]
inhibition at 1 µM [1]: 15%
inhibition at 1 µM [2]: 47%
inhibition at 1 µM [3]: 67.2%

CNC(=O)NCC1CCN(Cc2cc(Oc3cnc(N4CCN(CCC(N)=O)CC4)nc3)nc(-c3cc(Cl)cc(Cl)c3)c2)CC1 [Example 261, 3-(4-(5-((6-(3,5-dichlorophenyl)-4-((4-((3-methylureido)methyl)piperidin-1-yl)methyl)pyridin-2-yl)oxy)pyrimidin-2-yl)piperazin-1-yl) propanamide]
inhibition at 1 µM [1]: 0.69%
inhibition at 1 µM [2]: 53.6%
inhibition at 1 µM [3]: 56.8%

CNC(=O)NCC1CCN(Cc2cc(Oc3cnc(N4CCN(CCOC)CC4)nc3)nc(-c3cc(Cl)cc(Cl)c3)c2)CC1 [Example 262, 1-((1-((2-(3,5-dichlorophenyl)-6-((2-(4-(2-methoxyethyl)piperazin-1-yl)pyrimidin-5-yl)oxy)pyridin-4-yl)methyl)piperidin-4-yl)methyl)-3-methylurea]
inhibition at 1 µM [1]: 19%
inhibition at 1 µM [2]: 10.3%
inhibition at 1 µM [3]: 39.3%

CC(=O)NCC1CCN(Cc2cc(Oc3cnc(N4CCN(CCC(=O)O)CC4)nc3)nc(-c3cc(Cl)cc(Cl)c3)c2)CC1 [Example 263, 3-(4-(5-((4-((4-(acetamidomethyl)piperidin-1-yl)methyl)-6-(3,5-dichlorophenyl)pyridin-2-yl)oxy)pyrimidin-2-yl)piperazin-1-yl)propanoic acid]
inhibition at 1 µM [1]: 28.9%
inhibition at 1 µM [2]: 39.7%
inhibition at 1 µM [3]: 48.5%

— patent US20230011571A1, “SMALL MOLECULE FURIN INHIBITORS FOR TREATING INFECTIOUS DISEASES” (BP Asset V, Inc., priority 2019, published 2023)
